The source of these data is PubChem BioAssay (NCI).

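A five-concentration, 48-hour dose response in 96-well plates underlies each endpoint, interpolated linearly between surrounding concentrations. TGI marks complete inhibition of growth.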

Test systems include 786-0 renal; A549 NSCLC; ACHN renal; DU-145 prostate; EKVX NSCLC; HOP-92 NSCLC; NCI-H23 lung; NCI-H460 lung; NCI/ADR-RES ovarian; OVCAR-8 ovarian; SF-268 CNS; SNB-75 CNS; T-47D breast; U251 CNS; RPMI-8226 leukemia.
Holding throughout (test): growth of human tumour cells (NCI), 48 h

In the case of `COC1(OC)CCCCCCCCC(OC)(OC)CCCCCCCC1`, the TGI in the test on 786-0 renal, with A549 NSCLC, in the test with ACHN renal, in the test with DU-145 prostate, in the test with EKVX NSCLC and in the test with HOP-92 NSCLC was greater than 100 µM throughout. Besides, the TGI in the test with NCI-H23 lung, in the test with NCI-H460 lung, in the test with NCI/ADR-RES ovarian, in the test with OVCAR-8 ovarian, with SF-268 CNS and with SNB-75 CNS was greater than 100 µM throughout. For the same compound, the TGI with T-47D breast and in the test with U251 CNS was greater than 100 µM in each case.
Take `CC1=CP(=O)(OC(C)C)C=C(C)C1=C(Cl)Cl` (centres undefined): the TGI is greater than 100 µM with 786-0 renal; 97.8 µM with A549 NSCLC; greater than 100 µM in the test on ACHN renal; greater than 100 µM in the test with EKVX NSCLC; 54.6 µM in the test with HOP-92 NSCLC; greater than 100 µM with NCI-H23 lung. Further, the TGI in the test with NCI-H460 lung, with OVCAR-8 ovarian, in the test with RPMI-8226 leukemia, in the test on SF-268 CNS, in the test on SNB-75 CNS and with U251 CNS was greater than 100 µM throughout.
Turning to `CCCCN(CCCC)CC(C(=O)Nc1ccc([N+](=O)[O-])cc1[N+](=O)[O-])/C(C)=N\NC(=O)c1ccncc1` (centres undefined), the TGI in the test with 786-0 renal, with A549 NSCLC, in the test with ACHN renal, in the test with EKVX NSCLC, in the test on HOP-92 NSCLC and in the test with NCI-H23 lung was greater than 100 µM in each case. For the same compound, the TGI in the test on NCI-H460 lung, with OVCAR-8 ovarian, in the test with RPMI-8226 leukemia, in the test with SF-268 CNS, in the test on SNB-75 CNS and in the test on U251 CNS was greater than 100 µM each time.
For `CCN(CC)CC(C(C)=O)C(c1ccccc1)c1c(O)c2ccccc2oc1=O` (centres undefined), the TGI in the test on 786-0 renal, in the test on A549 NSCLC, with ACHN renal, in the test with EKVX NSCLC, in the test on NCI-H460 lung and in the test with OVCAR-8 ovarian was greater than 100 µM in each case. Moreover, the TGI with RPMI-8226 leukemia, in the test with SF-268 CNS, in the test with SNB-75 CNS and with U251 CNS was greater than 100 µM each time.
`O=C(O)CCC1C(=O)C2CCN1CC2` (centres undefined): the TGI with 786-0 renal, in the test on A549 NSCLC, in the test on ACHN renal, in the test with DU-145 prostate, in the test with EKVX NSCLC and in the test on NCI-H23 lung was greater than 100 µM throughout. For the same compound, the TGI with NCI-H460 lung, in the test on NCI/ADR-RES ovarian, in the test on OVCAR-8 ovarian, with RPMI-8226 leukemia, in the test with SF-268 CNS and in the test on SNB-75 CNS was greater than 100 µM each time. The TGI in the test on T-47D breast and with U251 CNS was greater than 100 µM each time.
For `C=C1C(=O)O[C@H]2C(=O)[C@H](C)CCC/C(C)=C/CC[C@@]3(C)O[C@@H]3C[C@@H]12`, the TGI in the test on 786-0 renal stood at 3.02 µM; in the test on A549 NSCLC, 21.4 µM; with ACHN renal, 2.63 µM; with DU-145 prostate, 11.1 µM; in the test on HOP-92 NSCLC, 2.99 µM; in the test with NCI-H23 lung, 29.3 µM. Moreover, the TGI was determined as 30.8 µM in the test with NCI-H460 lung; 40.5 µM in the test on NCI/ADR-RES ovarian; 3.59 µM in the test with OVCAR-8 ovarian; 4.79 µM in the test with RPMI-8226 leukemia; 16.4 µM in the test on SF-268 CNS; 4.35 µM in the test with T-47D breast. Besides, the TGI in the test on U251 CNS amounted to 13.3 µM.
`O=S(=O)(N=[Se](=O)(c1ccccc1)c1ccccc1)c1ccccc1`: the TGI with 786-0 renal, in the test with ACHN renal, with EKVX NSCLC, in the test with HOP-92 NSCLC, in the test on NCI-H23 lung and in the test on NCI-H460 lung was greater than 100 µM each time. Besides, the TGI in the test on NCI/ADR-RES ovarian, in the test with OVCAR-8 ovarian, with RPMI-8226 leukemia, in the test with SF-268 CNS, with SNB-75 CNS and with T-47D breast was greater than 100 µM in each case. The TGI with U251 CNS is greater than 100 µM.
Consider `O=C1C=C(Nc2cc(Cl)ccc2Cl)c2ccccc2C1=O`, for which the TGI in the test with 786-0 renal was greater than 100 µM; in the test on A549 NSCLC, greater than 100 µM; with ACHN renal, greater than 100 µM; in the test on EKVX NSCLC it was greater than 100 µM; in the test on HOP-92 NSCLC it was 69.7 µM; in the test with NCI-H23 lung it was 39.3 µM. The TGI is 88.9 µM in the test with NCI-H460 lung; 56.9 µM in the test with OVCAR-8 ovarian; 68 µM in the test with RPMI-8226 leukemia; greater than 100 µM with SF-268 CNS; 70.3 µM in the test on SNB-75 CNS; greater than 100 µM in the test on U251 CNS.
With `CC(=O)NNc1nc(C)c(C(=O)/C=C/c2ccc(N(C)C)cc2)s1`, the TGI with 786-0 renal, in the test with A549 NSCLC, in the test on ACHN renal, in the test on EKVX NSCLC, with HOP-92 NSCLC and in the test on NCI-H23 lung was greater than 100 µM throughout. Moreover, the TGI in the test with NCI-H460 lung, in the test on OVCAR-8 ovarian, in the test on RPMI-8226 leukemia, in the test with SF-268 CNS, in the test on SNB-75 CNS and in the test on U251 CNS was greater than 100 µM throughout.
As to `COc1ccc(N=Nc2c(-c3ccccc3)nn(C(=O)CC(=O)Nc3ccc(OC)cc3)c2-c2ccccc2)cc1`, the TGI with 786-0 renal is greater than 100 µM; in the test on A549 NSCLC, greater than 100 µM; in the test with ACHN renal it was greater than 100 µM; in the test with EKVX NSCLC it was greater than 100 µM; in the test with HOP-92 NSCLC, 50 µM; in the test on NCI-H23 lung it was greater than 100 µM. The TGI with NCI-H460 lung is greater than 100 µM; with OVCAR-8 ovarian, greater than 100 µM; in the test on RPMI-8226 leukemia, greater than 100 µM; in the test with SF-268 CNS, greater than 100 µM; in the test with SNB-75 CNS it was 37.9 µM; in the test on U251 CNS it was greater than 100 µM.
